Measured values: US10076572B2, “Photodynamic therapy for treating Clostridium difficile infection using chitosan and tetracycline” (priority 2015, dated 2018)
“And” between values parts separate entries of the source, which are not always exact repeats. Equal values may be shown once.

Assays:
C. difficile [1] = assay: Synergistic photodynamic bactericidal activity (PDT with UVA), colony-forming units; assay type: cell-based, Clostridium difficile (KCTC 5009); details: for Log10 CFU/mL (mean ± SD, n = 3): UVA
Experimental: The standard strain of Clostridium difficile was provided by Korean Collection for Type Cultures (C. difficile, KCTC 5009). C. difficile was cultured at 37° C. in a standard anaerobic condition on Clostridia reinforced agar (Oxoid, Cambridge, CB5 8BZ, UK).
Tetracycline, chitosan (low molecular weight), and ethidium bromide monoazide (EMA) were purchased from Sigma (Sigma Chemical Co., St. Louis, Mo.). A stock solution of tetracycline was prepared in water at a concentration of 10 mg/mL and stored for a maximum of 2 weeks at 4° C. in the dark before use. A stock solution of chitosan (1% w/v) was prepared in 1% acetic acid and used within one month. The light source for UVA was lamp (315-400 nm) for treatment of psoriasis (UV801KL, Waldmann Medical division, Germany). The irradiation procedure was performed in a dark and closed box and C. difficile containing plates were placed at a distance of 10 cm from the light source.
Based on a modification of the method of Tegos (G. P. Tegos, M. R. Hamblin. Phenothiazinium bactericidal photosensitizers are substrates of bacterial multidrug resistance pumps. Antimicrob. Agents Chemother. 50 (2006)196-203.), C. difficile that had been stored at −70° C. was cultured in Clostridial agar medium for 3 days.
After successive subcultures for two days, the cells were collected and suspended in PBS at a concentration of 10^8 cells/mL. The cell suspension was exposed to tetracycline alone at concentrations of 0.05 mg/mL, 0.1 mg/mL, 0.5 mg/mL and 1 mg/mL, or to 0.0125% chitosan containing TC at a concentration of 0.05 mg/mL, 0.1 mg/mL, 0.5 mg/mL and 1 mg/mL for 30 min.
After samples were washed twice with PBS, the bacterial cell suspension was dispensed at a volume of 1000 μL in a plate for irradiation for 5, 10, 20 and 30 min. After irradiation, cells were serially diluted tenfold in PBS to give dilutions of 10^−1 to 10^−8 of the original concentrations, and a 10 μL aliquot of each dilution was spotted on a Clostridial agar plate. After 2 days incubation, the colonies were counted to obtain the number of colony-forming units. C. difficile without treatment with TC, chitosan and light served as the control.

C. difficile [2] = assay: EMA-qPCR analysis of C. difficile DNA (16S rRNA gene) to evaluate cell death and DNA damage; assay type: cell-based, Clostridium difficile (KCTC 5009); details: UVA + TC (0.5 mg/mL), UVA irradiation 30 min
[3] = TC 0.05 mg/mL+UVA, after 30 min irradiation
[4] = TC 0.1 mg/mL+UVA, after 30 min irradiation

CN(C)[C@@H]1C(O)=C(C(N)=O)C(=O)[C@@]2(O)C(O)=C3C(=O)c4c(O)cccc4[C@@](C)(O)[C@H]3C[C@@H]12 [TC, tetracycline]
Log10 CFU/mL (mean ± SD, n = 3) (C. difficile [1]; 0.05 mg/mL TC, irradiation 0 min): 8.11 ± 0.48 Log10 CFU/mL
Log10 CFU/mL (mean ± SD, n = 3) (C. difficile [1]; 0.05 mg/mL TC, irradiation 5 min): 8.11 ± 0.78 Log10 CFU/mL
Log10 CFU/mL (mean ± SD, n = 3) (C. difficile [1]; 0.05 mg/mL TC, irradiation 10 min): 8.13 ± 0.40 Log10 CFU/mL
Log10 CFU/mL (mean ± SD, n = 3) (C. difficile [1]; 0.05 mg/mL TC, irradiation 20 min): 8.11 ± 0.67 Log10 CFU/mL
Log10 CFU/mL (mean ± SD, n = 3) (C. difficile [1]; 0.05 mg/mL TC, irradiation 30 min): 7.14 ± 0.33 Log10 CFU/mL
Log10 CFU/mL (mean ± SD, n = 3) (C. difficile [1]; 0.1 mg/mL TC, irradiation 0 min): 8.03 ± 0.39 Log10 CFU/mL
Log10 CFU/mL (mean ± SD, n = 3) (C. difficile [1]; 0.1 mg/mL TC, irradiation 5 min): 8.11 ± 0.11 Log10 CFU/mL
Log10 CFU/mL (mean ± SD, n = 3) (C. difficile [1]; 0.1 mg/mL TC, irradiation 10 min): 8.13 ± 0.53 Log10 CFU/mL
Log10 CFU/mL (mean ± SD, n = 3) (C. difficile [1]; 0.1 mg/mL TC, irradiation 20 min): 8.11 ± 0.21 Log10 CFU/mL
Log10 CFU/mL (mean ± SD, n = 3) (C. difficile [1]; 0.1 mg/mL TC, irradiation 30 min): 7.12 ± 0.38 Log10 CFU/mL
Log10 CFU/mL (mean ± SD, n = 3) (C. difficile [1]; 0.5 mg/mL TC, irradiation 0 min): 8.03 ± 0.48 Log10 CFU/mL
Log10 CFU/mL (mean ± SD, n = 3) (C. difficile [1]; 0.5 mg/mL TC, irradiation 5 min): 6.02 ± 0.76 Log10 CFU/mL
Log10 CFU/mL (mean ± SD, n = 3) (C. difficile [1]; 0.5 mg/mL TC, irradiation 10 min): 5.12 ± 0.10 Log10 CFU/mL
Log10 CFU/mL (mean ± SD, n = 3) (C. difficile [1]; 0.5 mg/mL TC, irradiation 20 min): 5.11 ± 0.27 Log10 CFU/mL
Log10 CFU/mL (mean ± SD, n = 3) (C. difficile [1]; 0.5 mg/mL TC, irradiation 30 min): 5.11 ± 0.23 Log10 CFU/mL
Log10 CFU/mL (mean ± SD, n = 3) (C. difficile [1]; 1 mg/mL TC, irradiation 0 min): 8.03 ± 0.39 Log10 CFU/mL
Log10 CFU/mL (mean ± SD, n = 3) (C. difficile [1]; 1 mg/mL TC, irradiation 5 min): 5.21 ± 0.11 Log10 CFU/mL
Log10 CFU/mL (mean ± SD, n = 3) (C. difficile [1]; 1 mg/mL TC, irradiation 10 min): 4.11 ± 0.23 Log10 CFU/mL
Log10 CFU/mL (mean ± SD, n = 3) (C. difficile [1]; 1 mg/mL TC, irradiation 20 min): 4.11 ± 0.21 Log10 CFU/mL
Log10 CFU/mL (mean ± SD, n = 3) (C. difficile [1]; 1 mg/mL TC, irradiation 30 min): 0 Log10 CFU/mL
decrease of viable cells (C. difficile [1]; [3]): 10 times
viable cells (C. difficile [1]; [3]): 1.12×10^7
decrease of viable cells (C. difficile [1]; [4]): 10 times
viable cells (C. difficile [1]; [4]): 1.14×10^7
viable cells (C. difficile [1]; TC 0.5 mg/mL+UVA, after 5 min irradiation): 1.10×10^6
viable cells (C. difficile [1]; TC 0.5 mg/mL+UVA, after 10 min irradiation): 1.12×10^5
viable cells (C. difficile [1]; TC 0.5 mg/mL+UVA, after 20 min irradiation): 1.11×10^5
viable cells (C. difficile [1]; TC 0.5 mg/mL+UVA, after 30 min irradiation): 1.13×10^5
viable cells (C. difficile [1]; TC 1.0 mg/mL+UVA, after 5 min irradiation): 1.21×10^5
viable cells (C. difficile [1]; TC 1.0 mg/mL+UVA, after 10 min irradiation): 1.11×10^4
viable cells (C. difficile [1]; TC 1.0 mg/mL+UVA, after 20 min irradiation): 1.13×10^4
viable cells (C. difficile [1]; TC 1.0 mg/mL+UVA, after 30 min irradiation): 0
Ct value (EMA-qPCR, 16S rRNA) (C. difficile [2]): 23.026±0.101 and 23.03 ± 0.101
